Measured values: patent publication US20250288599A1, “PHARMACEUTICAL COMPOSITIONS AND METHODS FOR TREATING OSTEOARTHRITIS” (INSIGNIA PHARMACEUTICALS, LLC, priority 2024, published 2025)

Columns and labels:
[1] = tested on: MMP3 expression in normal human dermal fibroblasts (NHDF); experiment: MMP3 mRNA in NHDF activated with IL-1β, 24 h, qRT-PCR; type: cell-based; settings: IL-1β 0.1 ng/ml, 100 mM Lac or 0.1 mM Dxp, IL-1β alone 3.5±1.7
Method: (§1) After 24 hours, total mRNA was isolated and delta-delta Cp relative expression was calculated versus untreated medium controls, normalized to the housekeeping gene, GAPDH. Statistical analysis was then conducted via t-test.

[2] = tested on: PGE2 release from normal human chondrocytes; experiment: IL-1β-induced PGE2 release from normal human chondrocyte monolayers, 48 h, competitive EIA; type: cell-based
Method: Mechanical stress and inflammation are thought to sustain catabolic cycles of extracellular matrix deterioration during osteoarthritis. In particular, PGE2 correlates with increased protease production and discomfort or pain in osteoarthritis.
After 48-hours, PGE2 release was evaluated by competitive EIA, and relative potency was calculated versus dose responses of Dex alone.
After 48 hours, PGE2 release was evaluated by competitive enzyme immunoassay (EIA), and relative potency was calculated versus Dex alone.
(§2) Lac is commonly thought to be simply an end-product of anaerobic glycolysis; however, it may also have immunomodulatory effects and promote protein modifications that alter gene expression. The goal of this experiment was to determine how Lac supplementation affects early-phase, inflammatory, and late-stage redifferentiation in chondrocyte models. To establish how Lac may influence inflammation early in osteoarthritis, monolayers of normal human chondrocytes were exposed to Lac dose responses of up to 100 millimolar, concurrently with 0.5 nanograms per milliliter IL-1β for 48 hours. The release of PGE2 was then quantified using competitive EIA. To investigate how Lac affects transcriptional programs in dedifferentiated osteoarthritic chondrocytes, monolayer cultures and micromass pellets were treated for 14 days with 100 millimolar final concentrations of Lac, with and without 10 nanograms per milliliter transforming growth factor beta 3 (TGF-β3). Total RNA was then isolated, and relative expression of SOX9 or Col2a1 was calculated using qRT-PCR, normalized to GAPDH.

[3] = tested on: Col2a1 expression in dedifferentiated osteoarthritic chondrocytes; experiment: Col2a1 relative expression in dedifferentiated osteoarthritic chondrocytes treated 14 days with Lac; type: cell-based, human
Excerpt: as §2, with “GAPDH. […] Lac may also have beneficial effects on osteoarthritic chondrocytes; 100 millimolar final Lac concentrations increased the relative expression of SOX9 and Col2a1 by 8-fold and 1600-fold, respectively, in monolayer cultures. […] Furthermore, adding Lac with TGF-β3 to micromass cultures increased SOX9 and Col2a1 by 9-fold and 88-fold, respectively.” for “GAPDH.”

[4] = tested on: RUNX2 expression in human osteoarthritic chondrocytes; experiment: RUNX2 relative expression in low passage osteoarthritic chondrocytes, 7, 14 or 28 days; type: cell-based; settings: 7, 14, 28 days
Method: Media was exchanged bi-weekly. Chondrocytes cultured for 7 days, 14 days, or 28 days were analyzed to assess SOX9 and RUNX2 expression. SOX9 is a transcription factor vital to the development and maintenance of cartilage and is required for chondrogenesis. SOX9 promotes chondrocyte survival and transcriptionally activates cartilage-specific genes. SOX9 is repressed in hypertrophic chondrocytes (i.e. terminally differentiated osteoblast-like cells).
The RUNX2 expression is provided at 7, 14, and 28 days of culturing.

[5] = tested on: ACAN expression in human osteoarthritic chondrocytes; experiment: ACAN relative expression in human osteoarthritic chondrocytes (passage 5) cultured 27 days; type: cell-based; settings: 50 micromolar Dec, 0.1 μM Dxp, 100 mM Lac
Excerpt: Delta-delta relative gene expression was employed to determine ACAN regulation in the 27-day samples referenced in Examples 15 and 16. A 3.81±0.77-fold increase in ACAN expression in the cells after 27 days of Lac treatment was observed. […] Without being bound by theory, it is hypothesized that these findings indicate that metabolic management and/or metabolite feedback loops represent promising therapy targets for osteoarthritis. Results associated with Example 17 are depicted in FIG. 53.

[6] = tested on: Col2a1 expression in dedifferentiated osteoarthritic chondrocytes; experiment: Col2a1 relative expression in high passage osteoarthritic chondrocyte monolayer model with TGF-β; type: cell-based, human; settings: 14 days in culture with TGF-β; 28 mM Lac, 100 mm LA
Method: (§3) These compounds were tested in a high passage osteoarthritic chondrocyte monolayer model, alone or in combination with other agents, for both transcriptional regulation of standard markers and IL-1β-induced PGE2 production.

[7] = tested on: Col2a1 expression in human osteoarthritic chondrocytes; experiment: Col2a1 relative expression in human osteoarthritic chondrocytes (passage 5) cultured 27 days; type: cell-based; settings: 50 micromolar Dec, 0.1 μM Dxp, 100 mM Lac
Method: (§4) To evaluate the biological ramifications of the SOX9 to RUNX2 regulation mentioned above, delta-delta relative gene expression was assessed against medium controls, with normalization to GAPDH for both Col2a1 and Col1a1 in the samples tested with reference to Example 15. […] Moreover, treatment with 100 mM Lac increased collagen expression (49.88±4.31 and 1.63±0.20 for Col2a1 and Col1a1, respectively; FIGS. 51 and 52).

[8] = tested on: Col2a1 expression in low passage osteoarthritic chondrocytes; experiment: Col2a1 relative expression in low passage osteoarthritic chondrocytes; type: cell-based, human; settings: day 28
[9] = tested on: Elastin (ELN) expression in normal human dermal fibroblasts (NHDF); experiment: ELN mRNA in NHDF activated with TGF-β1 or IL-1β, 24 h, qRT-PCR; type: cell-based; settings: 100 mM Lac or 0.1 mM Dxp
Method: as §1

[10] = tested on: MMP12 expression in normal human dermal fibroblasts (NHDF); experiment: MMP12 mRNA in NHDF activated with IL-1β, 24 h, qRT-PCR; type: cell-based; settings: IL-1β 0.1 ng/ml, 100 mM Lac or 0.1 mM Dxp, IL-1β alone 17.8±12.3
Method: as §1

[11] = tested on: SOX9 expression in dedifferentiated osteoarthritic chondrocytes; experiment: SOX9 relative expression in high passage osteoarthritic chondrocyte monolayer model with TGF-β; type: cell-based, human; settings: 14 days in culture with TGF-β; 28 mM Lac, 100 mm LA
Method: as §3

[12] = tested on: Col1a1 expression in human osteoarthritic chondrocytes; experiment: Col1a1 relative expression in human osteoarthritic chondrocytes (passage 5) cultured 27 days; type: cell-based; settings: 50 micromolar Dec, 0.1 μM Dxp, 100 mM Lac
Method: as §4

[13] = tested on: SOX9 expression in dedifferentiated osteoarthritic chondrocytes; experiment: SOX9 relative expression in dedifferentiated osteoarthritic chondrocytes treated 14 days with Lac; type: cell-based, human
Excerpt: as §2, with “GAPDH. […] Lac may also have beneficial effects on osteoarthritic chondrocytes; 100 millimolar final Lac concentrations increased the relative expression of SOX9 and Col2a1 by 8-fold and 1600-fold, respectively, in monolayer cultures. […]” for “GAPDH.”

[14] = 100 millimolar Lac with TGF-β3, 14 days, micromass cultures
[15] = 100 millimolar Lac, 14 days, monolayer cultures

CC(O)C(=O)O (stereo not drawn) [Lac, lactate]
relative expression of MMP3 [1]: 1.5±0.8 | concentration with statistically significant effect on PGE2 release ([2]; IL-1β 48 h): ≥ 10 millimolar | inhibition of PGE2 release ([2]; Lac 100 millimolar, 0.5 ng/mL IL-1β, 48 h): complete inhibition | increase in Col2a1 [3, 14]: 88 fold | increase in collagen ([3]; 100 millimolar Lac, 14 days, micromass pellets): 11 fold | increase in relative expression of Col2a1 [3, 15]: 1600 fold | RUNX2 expression [4]: temporal decrease in RUNX2 | ACAN delta-delta relative gene expression [5]: 3.81±0.77 fold | increase in Col2a1 compared to controls [6]: 30 fold | Col2a1 delta-delta relative gene expression [7]: 49.88±4.31 fold | relative expression of Col2a1 [8]: elevated Col2a1 relative expression | relative expression of ELN ([9]; IL-1β 0.1 ng/ml, IL-1β alone 18±12, n=3): 0.86±3 | relative expression of ELN ([9]; TGF-β1 10 ng/ml, TGF-β1 alone 110±35, n=3): 45+36 | relative expression of MMP12 [10]: 2.2±0.8 | increase in SOX9 transcription [11]: 2 fold | Col1a1 delta-delta relative gene expression [12]: 1.63±0.20 fold | increase in SOX9 [13, 14]: 9 fold | increase in relative expression of SOX9 [13, 15]: 8 fold
